“Also recorded” adds a separate entry of the source.
How the values were obtained:
[1] = test system: 3D-cultured human blastoids (WIBR3 OCT4-GFP background); assay: Post implantation WNT modulation of 3D-cultured blastoids; type: cell-based; settings: for OCT4-GFP reporter area (ratio of OCT4-GFP area: total blastoid area; EPI compartment) / OCT4-GFP signal intensity / invasive trophoblast projections / overall blastoid size (area): 2 μM in N2B27+E2, D8 to D14, 3D ECM, analysed at D14, vs control; for CTB shell: 2 μM, 6 days of treatment, D14 of 3D culture
Source text: Blastoids can be transferred on either day 7 or day 8 of growth. Due to the inaccessibility of commercially available extracellular matrix products during the experimentation phases of this project, multiple matrices were utilized in this study-hESC qualified growth factor-reduced Matrigel (Corning), hESC qualified growth factor reduced Geltrex (Gibco), and Cultrex UltriMatrix reduced growth factor basement membrane extract (R&D, BME001). […] Matrices were thawed on ice and kept cold until crosslinking was desired. Matrices mixed together (Matrigel/geltrex) were mixed following thawing and plated into ibidi microwells (120 μL/well) (ibidi, 80826) or alternatively 96 well plates (40 μL/well). Matrices were solidified at 37° C. for 30 minutes. Wash matrices 2 times with DMEM/F12 before adding blastoids. Add N2B27+10 nM estradiol without antibiotics to each well. Plate desired numbers of blastoids to each well (3-5 in an ibidi microwell, 1-2 in a 96 well plate). Place the plate in the incubator (37° C., 5% CO2, 5% 02) for 24 hours. Replace media daily with N2B27+10 nM estradiol without antibiotics. If blastoids are added at 7 days, the following day they may be loosely attached. Wait approximately 28-30 hours following seeding to ensure blastoids are well anchored before changing medium. Polar TE side attaches and the ICM expands compared to the day before when properly attached. On the following day (day 9) the TE collapses. Migratory EVT emerge at day 13. Maintaining proper pH is important for blastoids post implantation, the medium should be at pH=7.2-7.4 by pre-equilibration in the incubator or use freshly made N2B27 that has not oxidized too excessively (media should be pink/orange in color, never purple). WIBR3 OCT4-GFP blastoids were grown to 7 days in blastoid generating conditions (see above) and blastoids with localized single ICM, continuous trophectoderm, and with a round blastocoel cavity were chosen by hand and plated upon a pre-formed 3D matrix (Cultrex UltriMatrix) formed with a 96 well plate (40 μL of Cultrex per well). 2 blastoids per well were plated among 10 wells for each condition in N2B27+1 mM Na Pyruvate+10 nM Estradiol (E2). Blastoids were allowed to attach for approximately 24-30 hours in the incubator (5% CO2, 5% O2, 37° C., 100% humidity). When blastoids attached, TE collapsed, and ICM expanded, medium was changed to N2B27+1 mM Na Pyruvate+10 nM E2+2 μM XAV939 or +2 μM CHIR99021. Media was changed daily and grown in a 37° C., 5% CO2, 5% O2 incubator. Blastoids were fixed in 4% paraformaldehyde as described above on day 14 of total blastoid growth.

[2] = test system: WIBR3 OCT4-GFP naïve hPSCs; assay: Blastoid formation (cavitation) from 5i/L/A naïve hPSCs in Aggrewells; type: cell-based, human; settings: for rate of cavitation on omission of the component from the blastoid media: component omitted/removed (Conditions 2-4), D7
Method: Naïve hPSCs were dissociated with Accutase for 5 minutes at 37° C. Single cell dissociate naïve stem cells and inactivate accutase enzymes with fibroblast medium. Centrifuge this suspension 1000 rpm for 5 minutes. Remove supernatant and wash once with DMEM/F12, centrifuge 1000 rpm for 5 minutes. Aspirate supernatant and resuspend in 2 mL of 5i/L/A medium. Remove iMEFs from the cell suspension by incubation on gelatin-coated plates for 30-45 minutes at 37° C. 5% CO2. Collect cells and count cells to plate 100,000 cells per 24 well Aggrewell (StemCell Technologies) well. Coat the aggrewells with Anti-adherence solution (StemCell Technologies) for 10 minutes at room temperature. Wash wells once with DMEM/F12, then add 1 mL of 5i/L/A medium. Add naïve stem cells to Aggrewells, 100,000 cells per 500 μL, total medium should be 1.5 mL per well. Centrifuge the plate 1000 rpm for 2 minutes for equal distribution of cell number per microwell. Incubate at 37° C. 5% CO2 and 5% 02 for one day. […]
Cavitation rate was determined by counting individual aggregates at 7 days of blastoid growth in at least 3 24-well wells per condition. Tile scan images of the entire well were stitched together and aggregates vs. cavitated aggregates were manually counted in ImageJ. […] Significance determined by a 1-way ANOVA with multiple comparisons. *p<0.05, **p<0.01.
Blastoid size was determined with ImageJ software by drawing a circle around the entire blastoid, and diameters determined by a single line drawn across the widest apparent part of the blastoid (day 7 n=1901; day 8 n=18). Inner cell mass size was determined by utilizing the OCT4-GFP channel and manually drawing around the brightest region of GFP+ areas (control n=152 blastoids; —CHIR n=130). Significance determined with Welch's t-test, ****p<0.0001.

Row | Compound | OCT4-GFP reporter area (ratio of OCT4-GFP area: total blastoid area; EPI compartment) [1] | OCT4-GFP signal intensity [1] | invasive trophoblast projections [1] | overall blastoid size (area) [1] | CTB shell [1] | TE expansion (ICM:TE ratio based on OCT4-GFP reporter activity) on omission of the component ([2]; component omitted (Condition 2)) | rate of cavitation on omission of the component from the blastoid media [2]
1 | Cc1c[nH]c(-c2cnc(NCCNc3ccc(C#N)cn3)nc2-c2ccc(Cl)cc2Cl)n1 [CHIR99021] | reduced ratio of OCT4-GFP+ cells | diminished intensity of OCT4-GFP reporter activity | significantly fewer invasive trophoblast projections | larger; also recorded: increased | expansion of the CTB shell | specifically promotes TE expansion | enhanced the rate of cavitation
2 | Oc1nc(-c2ccc(C(F)(F)F)cc2)nc2c1CSCC2 [XAV939] | notable expansion | increase in signal intensity | significantly fewer invasive trophoblast projections | reduced | reduction of the CTB shell |  | 
3 | LIF: recombinant human leukemia inhibitory factor (PeproTech) |  |  |  |  |  |  | without adversely affecting the rate of cavitation
